Measurements from paper PMC5908295 (Oncotarget, 2018).

Key:
MOLM-16 (FLT3-WT) cells = assay: Western blot of FLT3/PIM downstream signaling; format: cell-based; conditions: MOLM-16, 4 hours
Description: (§1) Thereafter, we assessed the activities of FLT3-ITD – induced key pro-survival signaling pathways; STAT5, RAF/MEK/ERK and PI3K/AKT (Figure 3). […] Since the expression of a major anti-apoptotic BCL2 family member, MCL1, is regulated by translation, and PIM kinases regulate protein synthesis through 4EBP1, we also assessed the abundance of MCL1.
(§2) Cells were collected, washed twice with cold PBS, and lysed in RIPA buffer and kept on ice for 10 min. Tumor specimens from xenograft studies were homogenized in RIPA buffer using OMNI TH Tissue Homogenizer and kept on ice for 30 min. After incubation, cell and tumor lysates were centrifuged at 13,000×g at 4°C for 10 min and the supernatants were stored at −80°C until use. Protein concentration was measured using the Bradford method. For SDS-PAGE, 50 μg of protein in the Laemmli sample buffer was loaded onto 10% polyacrylamide gels and electrophoresed. Thereafter, proteins were transferred onto polyvinylidene fluoride (PVDF) membranes (Millipore). After blocking with 5% non-fat dry milk/TBS-T or 2% BSA/TBS-T, membranes were incubated with specific primary antibodies (listed in Supplementary Table 2) at 4 °C overnight. After extensive washing in PBS-T, membranes were incubated for 60 min with appropriate secondary peroxidase-conjugated IgG. The immunoreactive proteins were detected using an enhanced chemiluminescence (ECL) substrate (GE Healthcare) and visualized with Hyperfilm-ECL (GE Healthcare Biosciences).

[1] = system: MV-4-11 (FLT3-ITD+) cells; assay: Western blot of FLT3/PIM downstream signaling; format: cell-based; conditions: MV-4-11, 4 hours
Description: as §1, §2

OCI-AML-3 = assay: MTS viability assay, 72 h; conditions: Homo sapiens, OCI-AML-3, 72 h
Description: 15-25 ×10^3 of MV-4-11, MOLM-13, MOLM-14, MOLM-16, KG-1, Eol-1, SKM-1, PL-21, GDM-1, SKNO-1, RS4;11, Kasumi-3 and Kasumi-6 cells were seeded in 150 μL of culture medium onto individual wells in a 96 well plates, in triplicates. On the same day, 50 μL of medium containing tested inhibitor was added to the wells. Each compound was tested at 8 concentrations, in triplicates. As a negative control, the medium containing 0.1% DMSO was used. […] Staurosporine was used at 10 μM as a positive control. One the day of drug addition, basal signal from untreated cells was measured from in triplicate to determine time zero (T0). […] GI50 and LC50 values were extrapolated from a variable (four-parameter) dose-response curve fitted in GraphPad Prism.

CC(C)n1c(C2CCNCC2)nc2c([N+](=O)[O-])c(Br)c(Br)cc21 [SEL24-B489, 5,6-dibromo-4-nitro-2-(piperidin-4-yl)-1-(propan-2-yl)-1H-1,3-benzodiazole]
S6 (S235/236) phosphorylation (MOLM-16 (FLT3-WT) cells): profound inhibition | MCL1 abundance [1]: markedly decreased | STAT5 signaling [1]: completely blocked | apoptosis indicated by PARP cleavage [1]: marked induction of apoptosis | GI50 (OCI-AML-3): 1.59 µM | CC50 (OCI-AML-3; read-out: LC50): 9.21 µM
